This note sets out measurements from ChEMBL document CHEMBL1150780, “Duocarmycin-based prodrugs for cancer prodrug monotherapy” (Bioorg Med Chem, 2008).

Assay [1] concerns A549. Briefly: Cytotoxicity against human A549 cells after 24 hrs visualized by Lofflers methylene blue by colony forming assay. The class given is functional, cell-based.
The test system of assay [2] is A549. Briefly: Cytotoxicity against human A549 cells after 24 hrs visualized by Lofflers methylene blue by colony forming assay in presence of beta-D-glucuronidase. It is filed as functional, cell-based.
Assay [3] has as its system A549. Briefly: Ratio of IC50 for human A549 cells to IC50 for human A549 cells in presence of beta-D-glucuronidase. The class given is functional.

Broadly, the IC50 is the point on the concentration scale where inhibition reaches its midpoint. `C[C@@H](Cl)[C@@H]1CN(C(=O)c2cc3cc(OCCN(C)C)ccc3[nH]2)c2cc(O[C@@H]3O[C@H](C(=O)O)[C@@H](O)[C@H](O)[C@H]3O)c3ccccc3c21`: the IC50 in assay [1] was determined as 610 nM; in assay [2] it was 0.9 nM. Also, in assay [3], the “Ratio IC50” value turned out to be 700.
For `COC(=O)[C@H]1O[C@@H](Oc2cc3c(c4ccccc24)[C@H]([C@@H](C)Cl)CN3C(=O)c2cc3cc(OCCN(C)C)ccc3[nH]2)[C@H](O)[C@@H](O)[C@@H]1O`, the half-maximal inhibitory concentration (IC50) in assay [1] is 3300 nM; in assay [2], 2.1 nM. Besides, the “Ratio IC50” value in assay [3] stood at 1600.
